Experimental findings from ChEMBL document CHEMBL5137082, “Discovery of a Novel Vascular Disrupting Agent Inhibiting Tubulin Polymerization and HDACs with Potent Antitumor Effects” (J Med Chem, 2022) are described below.

Activity calls are given as the source filed them. The calls are words filed in the database; no cut-off is given here.

Series [1] deals with HepG2. The experiment in a line: Induction of apoptosis in human HepG2 cells assessed as downregulation of Bcl-2 protein expression measured after 24 hrs by Western blot analysis. Format: functional, cell-based. Particulars: dose 7.5-30 nM, DDE = dose-dependent effect.
Series [2] has as its system HepG2. Description: Induction of cell cycle arrest in human HepG2 cells assessed as accumulation S phase at 30 nM incubated for 48 hrs by propidium iodide staining based flow cytometry analysis (reference value: 17.14 +/- 0.34%). The format is functional. In general terms: Flow cytometry measures light scatter and fluorescence of single cells or particles in a stream.

The target of series [3] is Histone deacetylase 3 (Homo sapiens, UniProt O15379). Description: Inhibition of HDAC3 in human HepG2 cells assessed as increase in level of acetyl histone H3substrate incubated for 24 hrs by chemiluminescence based Western blotting analysis. As to conditions: dose 0.03-0.3 µM. The format is cell-based. (A western blot detects proteins with antibodies after separation by electrophoresis.)

Series [4] deals with HepG2. Description: Induction of apoptosis in human HepG2 cells assessed as late apoptotic cells at 30 nM incubated for 48 hrs by Annexin-V/PI-staining based flow cytometry (reference value: 2.53 +/- 0.34%). The format is functional.
Series [5] relates to H22. Description: Antivascular activity against mouse H22 cells allografted in ICR mouse assessed as reduction in tumor microvessel density by measuring CD31-positive cells at 20 mg/kg, iv administered qd measured after 21 days by immunohistochemistry analysis. The format is functional, organism-based. As to conditions: time 21.0 day.
Series [6] in a line: Toxicity in ICR mouse allografted with mouse H22 cells assessed as pathological changes in kidney at 20 mg/kg, iv administered qd measured after 21 days by H and E staining based analysis. Format: organism-based. Particulars: in vivo, 504 h, time 21 day.
In series [7] the test system is HepG2. The experiment in a line: Induction of cell cycle arrest in human HepG2 cells assessed as accumulation G2 phase at 15 nM incubated for 48 hrs by propidium iodide staining based flow cytometry analysis (reference value: 23.55 +/- 0.29%). Format: functional.
The subject of series [8] is PC-3. Description: Induction of apoptosis in human PC-3 cells assessed as mitochondrial membrane potential loss by measuring early apoptotic cells at 15 nM incubated for 48 hrs by JC1 staining based flow cytometry analysis (reference value: 6.50 +/- 0.17%). Format: functional.

Chain of Histone deacetylase 3 (O15379 whole entry): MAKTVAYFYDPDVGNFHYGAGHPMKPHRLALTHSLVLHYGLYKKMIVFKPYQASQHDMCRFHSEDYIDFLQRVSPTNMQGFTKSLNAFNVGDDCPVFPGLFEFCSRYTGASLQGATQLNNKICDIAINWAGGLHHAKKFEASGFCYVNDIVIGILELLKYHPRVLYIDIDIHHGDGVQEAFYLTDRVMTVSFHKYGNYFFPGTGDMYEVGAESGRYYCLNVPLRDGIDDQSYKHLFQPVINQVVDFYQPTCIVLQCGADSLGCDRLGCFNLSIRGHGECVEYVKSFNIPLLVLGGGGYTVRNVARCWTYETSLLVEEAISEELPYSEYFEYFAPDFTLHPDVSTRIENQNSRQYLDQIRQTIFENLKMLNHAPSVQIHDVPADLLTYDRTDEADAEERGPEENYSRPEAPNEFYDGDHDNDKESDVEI

Regarding `COc1ccc(CNC(=O)c2cc(F)ccc2N2CCOCC2)cc1/C=C/C(=O)NO`, the Activity entry is “Dde” in series [1]; 23.58% in series [2]; 15.68% in series [4]; “Non-Toxic” in series [6]; 26.97% in series [7]; 35.4% in series [8]. Besides, the inhibition entry in series [3] was “Active”. Also, the result in series [5] was Active.
